# System: COV434 cells
# Test: NAD Cell Assays (NAD cycling method)
# Format: cell-based
# Details: COV434 cells treated at 200 uM for 4 hr; NAD normalized to protein; salt compared mole per mole with its parent counterpart
# Procedure: NAD levels were assayed based on the NAD cycling method of Zhu and Rand, PLoS One (2012), herein incorporated by reference. COV434 cells were maintained in 6 well plates and treated with the indicated compounds at a concentration of 200 uM for 4 hr. Media was removed, plates were washed in cold PBS and cells were scraped down in NAD extraction buffer containing 10 mM nicotinamide, 50 mM Tris HCl, 0.1% Triton X-100. Cells were homogenized by sonication for 5 seconds, and samples were centrifuged at 7,000 g for 5 min at 4 degrees. Aliquots were taken for later protein assay, and samples were then passed through 10 kDa amicon filters at 14,000 g, 30 min at 4 degrees to remove proteins from the sample. Each sample was measured in technical triplicate, with 25 μL sample added to 100 μL ADH cycling mix (0.2 mg/ml alcohol dehydrogenase enzyme, 2% ethanol, 100 mM Tris pH 8.5). Samples were allowed to cycle for 10 min at room temperature, followed by 50 μL addition of an MTT/PMS solution (0.1 mM phenazine methosulfate, 0.8 mM 3-(4,5-Dimethylthiazol-2-yl)-2,5-diphenyltetrazolium bromide), 100 mM Tris-HCl pH 8.5). Plates were then incubated for 15 min and absorbance was measured at 570 nm. NAD concentrations were extrapolated from a standard curve, and normalized to protein concentrations determined by BCA protein assay.
# The fold increase is obtained through a direct comparison on a mole per mole between the compared salt and its parent counterpart.
row,Structure (SMILES),Fold Increase of NAD Adjusted by Molecular Weight
1,"NC(=O)c1ccc[n+]([C@@H]2O[C@H](COP(=O)([O-])O)[C@@H](O)[C@H]2O)c1 [I-005, 1-Carboxy-N,N,N-trimethylmethanaminium ((2R,3S,4R,5R)-5-(3-carbamoylpyridin-1-ium-1-yl)-3,4-dihydroxytetrahydrofuran-2-yl)methyl phosphate]",1.35
2,"O=C([O-])c1ccc[n+]([C@@H]2O[C@H](COP(=O)(O)O)[C@@H](O)[C@H]2O)c1 [I-007, 1-Carboxy-N,N,N-trimethylmethanaminium 1-((2R,3R,4S,5R)-3,4-dihydroxy-5-((phosphonatooxy)methyl)tetrahydrofuran-2-yl)pyridin-1-ium-3-carboxylate]",1.92
3,"O=C([O-])c1ccc[n+]([C@@H]2O[C@H](COP(=O)(O)O)[C@@H](O)[C@H]2O)c1 [I-006, (R)-3-Carboxy-2-hydroxy-N,N,N-trimethylpropan-1-aminium 1-((2R,3R,4S,5R)-3,4-dihydroxy-5-((phosphonatooxy)methyl)tetrahydrofuran-2-yl)pyridin-1-ium-3-carboxylate]",1.64
4,"O=C([O-])c1ccc[n+]([C@@H]2O[C@H](COP(=O)(O)O)[C@@H](O)[C@H]2O)c1 [I-002, (R)-3-Carboxy-2-hydroxy-N,N,N-trimethylpropan-1-aminium 1-((2R,3R,4S,5R)-5-(((hydrogenphosphonato)oxy)methyl)-3,4-dihydroxytetrahydrofuran-2-yl)pyridin-1-ium-3-carboxylate]",1.47
5,"O=C([O-])c1ccc[n+]([C@@H]2O[C@H](COP(=O)(O)O)[C@@H](O)[C@H]2O)c1 [I-003, 1-Carboxy-N,N,N-trimethylmethanaminium 1-((2R,3R,4S,5R)-5-(((hydrogenphosphonato)oxy)methyl)-3,4-dihydroxytetrahydrofuran-2-yl)pyridin-1-ium-3-carboxylate]",1.51

# — patent publication US20210309686A1, “QUATERNARY AMMONIUM SALTS OF NICOTINIC ACID AND NICOTINAMIDE MONONUCLOETIDES AND RIBOSIDES AS ANTI-AGING AGENTS” (Jumpstart Fertility Pty Ltd, priority 2018, published 2021)
